Test results reported in patent US20250052751A1, “COMPOSITIONS AND METHODS FOR DIAGNOSING AUTOIMMUNE AQUAPORINOPATHY” (The Regents of the University of California, priority 2023, published 2025).

Experiments:
[1] = tested on: WT, RAG1^−/−, TCRa^−/− and JHT recipient mice; experiment: Adoptive transfer of Th17-polarized peptide-specific T cells, clinical and histologic CNS disease; type: in vivo, mouse
Text: FIGS. 5A-5B. Pathogenic AQP4-specific Th17 cells induce sustained CNS autoimmune disease in T cell-deficient mice. (FIG. 5A) Th17-polarized AQP4 p133-149-specific T cells from AQP4−/− mice were transferred into WT, T cell- and B cell-deficient (T cell-/B cell-, RAG1^−/−), T cell-deficient (T cell-, TCRa^−/−) and B cell-deficient (B cell-, JHT) recipient mice then scored for clinical disease. Donor Th17-polarized MOG p35-55-specific T cells were transferred into WT recipient mice as a control. Results are representative of four experiments (n=5 per group). (FIG. 5B) Recipient mice were evaluated for histologic evidence of meningeal and CNS parenchymal inflammation (H&E). Results are representative of two experiments (2-4 mice/group/time-point/experiment).
CNS autoimmune disease induction and analysis. For adoptive induction of CNS disease with primary lymphocytes, mice were immunized s.c. with 100 μg AQP4 or MOG peptides in CFA containing 400 μg M. tuberculosis H37Ra (Difco Laboratories). After 10-12 days, lymph node cells were cultured with 15 μg/ml antigen for 3 days with 20 ng/ml IL-23 and 10 ng/ml IL-6, under Th17 polarizing conditions. 2×10^7 cells were injected i.v. into naïve recipients, which then received 200 ng B. pertussis toxin (Ptx) (List Biological) i.p. on days 0 and 2. Clinical scores: 0=no disease, 1=tail tone loss, 2=impaired righting, 3=severe paraparesis or paraplegia, 4=quadraparesis, and 5=moribund or death.
For induction of CNS disease by I-A^b:AQP4 tet-sorted cells targeted cells, primary lymph node cells from AQP4 or WT mice were restimulated with […] antigen and irradiated splenocytes every 10 days. Percent tetramer binding was monitored by flow cytometry. In preparation for adoptive transfer, cells were washed and cultured with 1:10 T cell-to-irradiated splenocytes under polarizing conditions for 3 days. CD4^+ cells were negatively sorted using magnetic beads (Miltenyi). 5×10^6 were transferred to TCRa^−/− recipients. 200 ng Ptx was given on days 0 and 2.
Histopathology. Brain, spinal cord, optic nerve, kidney and muscle tissue samples were fixed in 10% neutral-buffered formalin, paraffin-embedded, sectioned and stained with H&E. Meningeal and parenchymal inflammatory lesions and areas of demyelination were assessed in a blinded manner as described (39).

[2] = tested on: CD4^+ T cells; experiment: I-A^b:peptide tetramer binding by flow cytometry after peptide immunization; type: cell-based, mouse
Method: FIGS. 4A-4B. Negative selection of AQP4 p133-149-reactive T cells is bypassed partially in mice deficient in thymic AQP4 expression. (FIG. 4A) AQP4^−/− WT, Foxn1cre-AQP4^fl/fl, Aire^−/−, or Foxn1cre-Fezf2^fl/fl mice were immunized s.c. with peptides indicated. Peptide-specific proliferation of draining lymph node cells was measured by 3H-thymidine incorporation (mean±SEM, representative of five experiments). Comparisons within the five experiments for p133-149 at […]: WT vs. AQP4^−/− (p=0.008), WT vs. Foxn1cre-AQP4^fl/fl (p=0.008). (FIG. 4B) Ten days after peptide immunization, CD4^+ T cells from draining lymph nodes were analyzed for I-A^b: peptide tetramer binding by flow cytometry. Each data point represents the frequency (mean±SEM) of CD4^+ T cells bound to cognate antigen-tetramer in a single mouse. […] For p133-149: WT vs. Aire^−/− (p=0.9), WT vs. Foxn1cre-Fezf2^fl/fl (p=0.3). For p202-218: WT vs. Foxn1cre-AQP4^fl/fl (p=0.3), WT vs. Aire^−/− (p=0.06).
Flow cytometry. For analysis of tetramer binding, AQP4 p133-149, p202-218, IRBP p277-289 and hCLIP p87-101 IA^b tetramers conjugated to PE or APC were provided by the National Institute of Allergy and Infectious Diseases Tetramer Core Facility at Emory University. Lymphocytes were coincubated with 1 mg/ml tetramer conjugated to PE or APC for 2 hours at room temperature, washed and enriched using anti-PE magnetic microbeads (Miltenyi) over a magnetic column. Binding to hCLIP tetramer was used as a negative control. Dead cells were excluded using Live/Dead fixable Aqua Dead Cell Stain Kit (Invitrogen), lineage negative cells were excluded using antibodies to CD11b (M1/70), B220 (RA3-6B2) and CD8 (53-6.7) and positive cells were selected using antibodies to CD3 (145-2C11) and CD4 (RM4.5). 123count eBeads (Invitrogen) were used with unenriched and enriched samples for quantification of the frequency of tet^+CD4^+ T cells (total number of tet^+CD4+ T cells divided by total CD4^+ T cells per mouse). For figures showing tetramer staining, flow cytometry of the unenriched cells are shown. For analysis of GFP^+ T cells, mice were perfused with PBS, and the CNS was dissected, minced, digested with collagenase and DNase I (Roche), and isolated over a Ficoll gradient as described previously (39). Live CD4^+ cells were analyzed with a viability stain (Near-IR), and antibodies to CD11b, B220, CD8 and CD4. Apoptosis was analyzed separately using the same antibody staining, followed by Annexin V and 7-AAD staining in Annexin V binding buffer (BioLegend) per manufacturer's instructions. Cells were quantified using 123count eBeads.

[3] = donor Th17 cells from AQP4^−/− mice, recipient WT and JHT mice
[4] = AQP4^−/− mice compared with the other strains, cognate I-A^b:peptide tetramer
[5] = Foxn1cre-AQP4^fl/fl (thymic AQP4-deficient) mice compared with WT mice

Sequence | CNS autoimmunity after transfer of tet^+-sorted T cells ([1]; I-A^b:AQP4 p133-149 tet^+-sorted T cells from immunized AQP4^−/− mice) | clinical and histologic CNS disease after transfer of peptide-specific Th17 cells ([1]; WT recipient mice) | onset of paralysis after transfer [1, 3] | time from onset to complete recovery [1, 3] | clinical and histologic CNS disease after transfer of peptide-specific Th17 cells ([1]; recipient RAG1^−/− and TCRa^−/− mice) | CNS inflammation (H&E) ([1]; recipient WT and JHT mice, day 21) | frequency of CD4^+ tet^+ T cells [2, 4] | frequency of CD4^+ tet^+ T cells [2, 5] | frequency of CD4^+ tet^+ T cells ([2]; Foxn1cre-AQP4^fl/fl mice compared with AQP4^−/− mice)
LYLVTPPSVVGGLGVT [AQP4 p133-149] | transferred CNS autoimmunity to WT mice | capable of inducing paralysis and CNS inflammation in WT mice | ~7 days | 4 to 5 days | persistent paralysis and CNS inflammation | no longer evident after recovery | significantly elevated in AQP4^−/− mice | significantly elevated in comparison to AQP4 p133-149-specific T cells in WT mice | significantly lower than in AQP4^−/− mice
LFAINYTGASMNPARSF [AQP4 p202-218] | – | capable of inducing paralysis and CNS inflammation in WT mice | – | – | – | – | elevated in AQP4^−/− mice in comparison to other strains | did not permit significant restoration | –
